Assay results: patent US20230014918A1, “COMPOSITIONS FOR USE AS ANTIOXIDANT” (priority 2019, published 2023)
Entries after “also recorded” stand apart in the source; their conditions may differ.

What was measured:
[1] = test system: mice mesenteric arteries; assay: Vascular reactivity of phenylephrine-precontracted mice mesenteric arteries; assay type: cell-based; conditions: for direct dose-dependent vasorelaxation compared with Healthberry 865 / vasorelaxation reached: single anthocyanins; for direct dose-dependent vasorelaxation compared with Healthberry 865: 1-100 μg/mL; for vasorelaxation reached: dose-response curves 1-100 μg/mL
Description: Aorta, carotid, femoral arteries and second-order branches of the mesenteric arterial tree were removed from mice to perform vascular studies. […] First, an analysis of vascular reactivity curves was performed. In particular, vasoconstriction was assessed with 80 mmol/L of KCI or with increasing doses of phenylephrine (from 10^-9 M to 10^-6 M) in control conditions. […] Caution was taken to avoid endothelial damage; functional integrity was reflected by the response to acetylcholine (from 10^-9 M to 10^-6 M).

[2] = test system: mice mesenteric arteries; assay: Evaluation of NO production by DAF-FM in mice mesenteric arteries; assay type: cell-based; conditions: single anthocyanins 50 μg/mL
Description: Production of NO was assessed as previously described (Carrizzo et al. 2016). […] Mesenteric segments were cut in 5-μm thick sections, observed under a fluorescence microscope, subsequently counterstained with haematoxylin and eosin and observed under a light microscope.
Scale bar, 50 μm. E) Semiquantitative analyses of immunoblots of mice mesenteric arteries treated with HB (100 μg/mL) alone, or HB plus Akt inhibitor or LY294002, columns are the mean±SEM of three independent experiments. Statistical analyses were performed using two-way ANOVA followed Bonferroni post-hoc test. *p<0.05; **p<0.01, ***p<0.001.

[3] = test system: NADPH oxidase; assay: NADPH oxidase activity, lucigenin-enhanced chemiluminescence assay in mesenteric arteries; assay type: cell-based, mice; conditions: after stimulation with Angiotensin II
Description: Vessels were homogenized in a buffer containing protease inhibitors (mmol/L: 20 monobasic potassium phosphate, 1 EGTA, 0.01 aprotinin, 0.01 leupeptin, 0.01 pepstatin, 0.5 phenylmethylsulfonyl fluoride, pH 7.0). Protein content was measured in an aliquot of the homogenate by Bradford method. In some experiments, cells and vessels were pre-incubated with pharmacological inhibitors before measurements. The reaction was started by the addition of NADPH (0.1 mmol/l) and lucigenin (5 μmol/l) to each well. The chemiluminescence was measured using Tecan Infinite Pro M200 multimode microplate at 37° C.
Vessels were pre-treated with single anthocyanins (50 μg/mL) for 1 hours and then stimulated with Angiotensin II for 15 minutes prior to the acquisition. […] Data are expressed as increase of chemiluminescence per minute.

[4] = test system: mice mesenteric arteries; assay: Total ROS production by Dihydrorhodamine 123 (DHR123) in mouse vessels; assay type: cell-based; conditions: vessels stimulated with Angiotensin II
Description: (§1) Dihydroethidium (DHE, Life Technologies) was used to evaluate production of reactive oxygen species (ROS) in mouse mesenteric arteries, as previously described. Briefly, vessels were incubated with 5 μM of DHE for 20 min and subsequently observed under a fluorescence microscope (Zeiss). Images were acquired by a digital camera system (Olympus Soft Imaging Solutions). […] After treatment, vessels were incubated with Krebs solution containing 5 μM DHR123 for 30 min at 37° C., and then washed two times with PBS prior to fluorescence measurement using a fluorescence microplate reader (TECAN infinite 200 Pro).

[5] = test system: mice mesenteric arteries; assay: Total ROS production by dihydroethidium (DHE) in Angiotensin II-stimulated mice mesenteric arteries; assay type: cell-based; conditions: pre-treatment 50 μg/mL for 1 hour, then Angiotensin II for 15 minutes
Description: as §1

Row | Molecule | vasorelaxant effect in presence of Akt inhibitor ([1]; increasing doses, Akt inhibitor) | vasorelaxant effect in presence of PI3K inhibitor LY294002 ([1]; increasing doses, pre-treatment with LY294002) | vasorelaxant effect in presence of L-NAME ([1]; increasing doses, pre-treatment with eNOS inhibitor L-NAME) | vasorelaxant effect in presence of Dorsomorphin ([1]; increasing doses, selective AMPK inhibitor Dorsomorphin) | direct dose-dependent vasorelaxation compared with Healthberry 865 [1] | nitric oxide production (DAF-FM fluorescence) [2] | NADPH oxidase (NOX) activity [3] | total ROS production (DHR123) [4] | Angiotensin II-induced ROS formation (DHE) [5] | vasorelaxation reached [1]
1 | OC[C@H]1O[C@@H](Oc2cc3c(O)cc(O)cc3[o+]c2-c2ccc(O)c(O)c2)[C@H](O)[C@@H](O)[C@H]1O [C3-gal, Cyanidin-3-galactoside] | did not inhibit C3-gal vascular action | did not inhibit C3-gal vascular action | significantly reduced its vasorelaxant properties | completely lost its vasorelaxant capability | very similar to that induced by Healthberry 865® | significant increase of nitric oxide production |  |  |  | 
2 | OC[C@H]1O[C@@H](Oc2cc3c(O)cc(O)cc3[o+]c2-c2ccc(O)c(O)c2)[C@H](O)[C@@H](O)[C@@H]1O [C3-glu, Cyanidin-3-glucoside] |  |  |  |  | none of the single anthocyanins was able to evoke a dose-dependent vasorelaxation comparable |  | able to reduce NOX activity; also recorded: most powerful anthocyanins closer to the potent effect of Healthberry 865® | a similar effect was reproduced | able to reproduce the antioxidant action of Healthberry 865® | 
3 | C[C@@H]1O[C@@H](OC[C@H]2O[C@@H](Oc3cc4c(O)cc(O)cc4[o+]c3-c3ccc(O)c(O)c3)[C@H](O)[C@@H](O)[C@@H]2O)[C@H](O)[C@H](O)[C@H]1O [C3-rut, Cyanidin-3-rutinoside] |  |  |  |  | none of the single anthocyanins was able to evoke a dose-dependent vasorelaxation comparable; also recorded: vasorelaxant effects evoked by DP3-gal, C3-rut and DP3-ara were observed |  | able to reduce NOX activity | a similar effect was reproduced | able to reproduce the antioxidant action of Healthberry 865® | ~36,5%
4 | Oc1cc(O)c2cc(O[C@H]3OC[C@H](O)[C@H](O)[C@H]3O)c(-c3cc(O)c(O)c(O)c3)[o+]c2c1 [DP3-ara, Delphinidin-3-arabinoside] |  |  |  |  | none of the single anthocyanins was able to evoke a dose-dependent vasorelaxation comparable; also recorded: vasorelaxant effects evoked by DP3-gal, C3-rut and DP3-ara were observed |  |  |  |  | 
5 | OC[C@H]1O[C@@H](Oc2cc3c(O)cc(O)cc3[o+]c2-c2cc(O)c(O)c(O)c2)[C@H](O)[C@@H](O)[C@H]1O [DP3-gal, Delphinidin-3-galactoside] |  |  |  |  | none of the single anthocyanins was able to evoke a dose-dependent vasorelaxation comparable; also recorded: vasorelaxant effects evoked by DP3-gal, C3-rut and DP3-ara were observed |  |  |  |  | about 32,5%
6 | OC[C@H]1O[C@@H](Oc2cc3c(O)cc(O)cc3[o+]c2-c2cc(O)c(O)c(O)c2)[C@H](O)[C@@H](O)[C@@H]1O [DP3-glu, Delphinidin-3-glucoside] |  |  |  |  | none of the single anthocyanins was able to evoke a dose-dependent vasorelaxation comparable |  | able to reduce NOX activity | a similar effect was reproduced | able to reproduce the antioxidant action of Healthberry 865® | 
7 | COc1cc(-c2[o+]c3cc(O)cc(O)c3cc2O[C@@H]2O[C@H](CO)[C@H](O)[C@H](O)[C@H]2O)cc(OC)c1O [MAL3-gal, Malvidin-3-galactoside] |  |  |  |  | none of the single anthocyanins was able to evoke a dose-dependent vasorelaxation comparable |  | able to reduce NOX activity | a similar effect was reproduced | able to reproduce the antioxidant action of Healthberry 865® | 
8 | COc1cc(-c2[o+]c3cc(O)cc(O)c3cc2O[C@@H]2O[C@H](CO)[C@@H](O)[C@H](O)[C@H]2O)cc(OC)c1O [MAL3-glu, Malvidin-3-glucoside] |  |  |  |  | none of the single anthocyanins was able to evoke a dose-dependent vasorelaxation comparable |  | able to reduce NOX activity; also recorded: most powerful anthocyanins closer to the potent effect of Healthberry 865® | a similar effect was reproduced | able to reproduce the antioxidant action of Healthberry 865® | 
9 | COc1cc(-c2[o+]c3cc(O)cc(O)c3cc2O[C@@H]2O[C@H](CO)[C@@H](O)[C@H](O)[C@H]2O)cc(O)c1O [PT3-glu, Petunidin-3-glucoside] |  |  |  |  | none of the single anthocyanins was able to evoke a dose-dependent vasorelaxation comparable |  |  |  |  | 
10 | Peonidin-3-galactoside [PEO3-gal] |  |  |  |  | none of the single anthocyanins was able to evoke a dose-dependent vasorelaxation comparable |  | able to reduce NOX activity | a similar effect was reproduced | able to reproduce the antioxidant action of Healthberry 865® | 
